The source of these data is publication doi:10.64898/2025.12.03.692196v2, “Dimerization and Threonine-Dependent Stabilization Govern Human YRDC Catalysis” (biorxiv, 2026).

Common to all, as to assay: biochemical
What all share (design): SYPRO Orange DSF; apparent Kd from Tm versus ligand concentration

Experiment [1] deals with T1, YRDCWT (human YRDC, ΔN43) (Homo sapiens, UniProt Q86U90, R253K).
T1 construct: lacks first 43 residues (N-terminal truncation); N-terminal His6 tag removed with TEV; E. coli BL21(DE3); homodimer
T1 sequence (Q86U90 44-279 R253K): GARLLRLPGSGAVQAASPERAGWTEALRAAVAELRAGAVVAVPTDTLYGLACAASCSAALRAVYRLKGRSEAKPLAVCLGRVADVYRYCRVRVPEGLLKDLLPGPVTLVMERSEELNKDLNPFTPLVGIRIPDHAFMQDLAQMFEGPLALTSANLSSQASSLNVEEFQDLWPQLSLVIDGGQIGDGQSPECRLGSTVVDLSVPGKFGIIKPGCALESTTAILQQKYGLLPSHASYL
Conditions: With L-threonine; DSF apparent KD. The procedure: (§1) Reactions were prepared in a MicroAmp™ 96-well optical reaction plate (Fisher Scientific) with a final volume of 20 μL per well, in assay buffer (50 mM Tricine pH 8.5, 10 mM MgCl₂) with 8 μM YRDC, and 5X SYPRO Orange dye (Invitrogen). The concentrations of substrates, including ATP, L-threonine, and NaHCO3, were varied based on the reaction type. In most cases wild-type YRDC and its mutants were assessed under various conditions, including enzyme alone, enzyme with ATP concentrations ranging from 10 µM to 500 µM, enzyme with L-threonine concentrations between 0.5 mM and 50 mM, either in the presence or absence of 500 µM ATP, and enzyme with NaHCO3 concentrations from 10 mM to 500 mM in the presence of both 500 µM ATP and 25 mM L-threonine. Fluorescence emission was recorded using Applied Biosystems® QuantStudio 1 Real-Time PCR system (λex = 520 nm, λem = 558 nm). Temperature increases were performed over the range of 25–95 °C, with increments of 1 °C/min, while changes in fluorescence intensity were continuously measured. Each experiment was conducted in triplicate, and the data are presented as the mean ± standard deviation. Control reactions, prepared without the enzyme, were used to account for background fluorescence and were subtracted from experimental measurements. Melting curves were fitted using a Boltzmann sigmoidal model, and thermal stability (Tₘ) values were determined from the inflection point of the curve. The dissociation constant (KD) of the enzyme with each substrate is calculated based on the DSF single binding equation[45]: [drawing 1] Where Tm,0 and Tm,∞refer to the melting temperature (Tm) in °C at zero and infinite ligand concentrations, respectively, P represents the protein concentration and Kd,app is the apparent dissociation constant obtained from ligand-dependent thermal stabilisation.

For a further experiment, the target named is T2, YRDCS195A (Homo sapiens, UniProt Q86U90, S238A).
T2 construct: gene YRDC; lacks N-terminal 43 residues; printed numbering S195A is of the truncated protein
T2 sequence (Q86U90 1-279 S238A): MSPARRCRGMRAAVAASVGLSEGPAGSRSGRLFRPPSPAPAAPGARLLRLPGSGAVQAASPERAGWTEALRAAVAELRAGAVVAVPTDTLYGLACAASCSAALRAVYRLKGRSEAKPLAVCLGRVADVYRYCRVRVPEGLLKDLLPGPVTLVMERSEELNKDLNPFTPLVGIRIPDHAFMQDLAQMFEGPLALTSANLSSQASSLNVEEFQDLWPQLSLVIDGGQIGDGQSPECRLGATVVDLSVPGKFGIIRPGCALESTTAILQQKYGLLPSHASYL
Conditions: With L-threonine; DSF apparent KD. The procedure: as §1

Experiment [2] has as its target T3, YRDCWT (human YRDC, ΔN43) (Homo sapiens, UniProt Q86U90, C121A).
T3 construct: lacks first 43 residues (N-terminal truncation); N-terminal His6 tag removed with TEV; E. coli BL21(DE3); homodimer
T3 sequence (Q86U90 44-279 C121A): T1 sequence (Q86U90 44-279 R253K) with C78A, K210R
Conditions: With L-threonine; DSF apparent KD. The protocol:
as §1

Experiment [3] deals with T4, YRDCWT (human YRDC, ΔN43) (Homo sapiens, UniProt Q86U90).
T4 construct: lacks first 43 residues (N-terminal truncation); N-terminal His6 tag removed with TEV; E. coli BL21(DE3); homodimer
T4 sequence (Q86U90 44-279 C121A): T1 sequence (Q86U90 44-279 R253K) with C78A, K210R
Conditions: DSF apparent KD. The procedure: as §1

Experiment [4] has as its target T5, YRDCWT (human YRDC, ΔN43) (Homo sapiens, UniProt Q86U90).
T5 construct: lacks first 43 residues (N-terminal truncation); N-terminal His6 tag removed with TEV; E. coli BL21(DE3); homodimer
T5 sequence (Q86U90 with tags, fused parts or gaps DEL265-265): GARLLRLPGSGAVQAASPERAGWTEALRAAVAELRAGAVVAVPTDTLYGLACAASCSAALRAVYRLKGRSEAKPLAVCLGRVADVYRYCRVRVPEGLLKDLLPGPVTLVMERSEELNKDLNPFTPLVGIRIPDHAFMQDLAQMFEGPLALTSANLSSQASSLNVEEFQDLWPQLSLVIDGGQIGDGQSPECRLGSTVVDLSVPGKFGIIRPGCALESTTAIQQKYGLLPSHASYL
Conditions: With ATP; DSF apparent KD. The protocol:
as §1

Experiment [5] deals with T6, YRDCWT (human YRDC, ΔN43) (Homo sapiens, UniProt Q86U90, I221T).
T6 construct: lacks first 43 residues (N-terminal truncation); N-terminal His6 tag removed with TEV; E. coli BL21(DE3); homodimer
T6 sequence (Q86U90 44-279 I221T): T1 sequence (Q86U90 44-279 R253K) with I178T, K210R
Conditions: DSF apparent KD. The protocol: as §1

Another experiment concerns the target T7, (human YRDC, ΔN43) (Homo sapiens, UniProt Q86U90, A84V).
T7 construct: lacks first 43 residues (N-terminal truncation); N-terminal His6 tag removed with TEV; E. coli BL21(DE3); homodimer
T7 sequence (Q86U90 44-279 A84V): T1 sequence (Q86U90 44-279 R253K) with A41V, K210R
Conditions: With ATP and L-threonine; DSF apparent KD. The protocol: as §1

SMILES strings stand for the structures. Where a chain is given by its changes, count along the chain named.

Take `Nc1ncnc2c1ncn2[C@@H]1O[C@H](COP(=O)(O)OP(=O)(O)OP(=O)(O)O)[C@@H](O)[C@H]1O` [ATP]: the Kd is 148 ± 112 µM in experiment [1], 48.9 ± 37.8 µM at YRDCS195A and 133 ± 29.7 µM in experiment [2].

`C[C@@H](O)[C@H](N)C(=O)O` [L-threonine]: the values for the Kd in experiment [3] (With ATP), in experiment [4] and in experiment [5] (With ATP) were 1.2 ± 0.3 mM, 2.1 ± 0.7 mM and 0.4 ± 0.1 mM, respectively.

Regarding `O=C(O)O` [bicarbonate], the Kd amounted to 6.5 ± 2 mM at (human YRDC, ΔN43); 3.7 ± 2 mM in experiment [3] (With ATP and L-threonine); 8.3 ± 4.2 mM in experiment [5] (With ATP and L-threonine).
